According to patent publication US8912144B2, “Method for treating stroke via administration of NEP1-40 and inosine” (Children's Medical Center Corporation, priority 2003, dated 2014):

System: corticospinal neurons (CSNs/CSMNs)
Assay: Laser-capture microdissection and Illumina microarray gene expression in corticospinal neurons contralateral to stroke
Assay type: in vivo, rat
Method: In a separate group of animals (n=20), layer V pyramidal cells of the sensorimotor cortex were retrogradely labeled by injecting Alexa-Fluor-488-conjugated cholera toxin B subunit (CTB; 300 U/μl in sterile saline) into the cervical spinal cord. For this, animals were anesthetized with a combination of ketamine and Domitor (medetomidine) and a laminectomy was performed at the cervical level of the spinal cord (C2-C4). CTB was stereotaxically delivered into four sites lateral to the corticospinal tract. Injections (1.3 μl) were spaced 1 mm apart on the rostro-caudal axis, and were made 0.5 mm to the left and right of the midline. After allowing two weeks for transport of the tracer, we performed either sham surgery with no treatment (n=6) or stroke surgery combined with saline (n=3) or inosine (n=4) treatment as described above. Seven days later, animals were decapitated under transient gas anesthesia, brains were removed and rinsed in cold RPMI medium, and a tissue block containing the sensorimotor cortex was dissected and placed in OCT Tissue Tek Medium (Sakura Finetek USA Inc., CA) on dry ice within five minutes of death. Ten μm sections were cut onto precleaned Gold Seal RITE-ON glass slides (Gold Seal Prod-ucts, Portsmouth, N.H.), placed on dry ice, and rapidly stored at −80° C.
Slide-mounted sections were thawed and dehydrated in RNAse-free ethanol gradients and xylene. Retro-gradely labeled, fluorescent cortical pyramidal cells in the undamaged hemisphere were individually captured using the Arcturus VERITAS system. ≧500 cells were collected from each animal and stored in Arcturus extraction buffer at −80° C. Total RNA was extracted from cells using the Micro-to-Midi TotalRNA Purification System (Invitrogen, Carlsbad Calif.) and double-amplified using the TargetAmp 2-Round Aminoallyl-aRNA Amplification kit 1.0 (Epicentre, Madison, Wis.). Amplified RNA was checked for average fragment length using the Agilent RNA 6000 Nano LabChip kit (Agilent Technologies, Santa Clara, Calif.) and then biotinylated and hybridized (1 μg) on Illumina RatRef-12 Expression BeadChip arrays (Illumina, San Diego Calif.), querying the expression of >22,000 RefSeq-curated rat transcripts. Results were obtained from a total of 15 samples representing 6 untreated controls, 4 animals with stroke treated with saline and 5 animals with stroke treated with inosine. Slides were processed and scanned with Illumina BeadStation platform according to the manufacturer protocol.
Raw data was analyzed using Bioconductor packages (www.bioconductor.org, (Gentleman et al., 2004)). Low level quality-control analysis was performed using inter-array Pearson correlation and clustering based on variance. Two arrays (1 saline and 1 inosine-treated) were outliers and were excluded from the analysis. Data was normalized using quantile normalization, and analysis of differential expression was performed using a linear model fitting (LIMMA package, (Smyth, 2005). Differentially expressed genes were classified according to gene ontology using Bioconductor packages and online tools (DAVID, http://david.abcc.ncifcrf.gov/). Pathway analysis was carried out using Ingenuity Pathway Analysis (Ingenuity Systems, www.ingenuity.com).

## OC[C@H]1O[C@@H](n2cnc3c(O)ncnc32)[C@H](O)[C@@H]1O [inosine]
ILMN_57967
  Fold-Induction Stroke, ino vs. cntrl, Hbld2: 0.54
ILMN_57967, inosine after stroke
  Signal Intensity, Hbld2: 1095
ILMN_58032
  Fold-Induction Stroke, ino vs. cntrl, LOC298490: 0.62
ILMN_58032, inosine after stroke
  Signal Intensity, LOC298490: 1407
ILMN_58058, over and above inosine's effect of decreasing stroke-induced changes
  Fold-induction CSMNs: Lcp1: 2.68 fold
ILMN_58092
  Fold-Induction Stroke, ino vs. cntrl, LOC290549: 0.54
ILMN_58092, inosine after stroke
  Signal Intensity, LOC290549: 1870
ILMN_58180
  Fold-Induction Stroke, ino vs. cntrl, Rhob: 0.52
ILMN_58180, inosine after stroke
  Signal Intensity, Rhob: 276
ILMN_58290
  Fold-Induction Stroke, ino vs. cntrl, Gdap2: 0.58
ILMN_58290, inosine after stroke
  Signal Intensity, Gdap2: 319
ILMN_58496, LCM-captured CSMNs contralateral a stroke
  Fold-Induction, complement cascade gene C1qa: 2.03 fold
ILMN_58496, over and above inosine's effect of decreasing stroke-induced changes
  Fold-induction CSMNs: C1qa: 1.84 fold
ILMN_58550
  Fold-Induction Stroke, ino vs. cntrl, Rab11a: 0.56
ILMN_58550, inosine after stroke
  Signal Intensity, Rab11a: 1039
ILMN_58730
  Fold-Induction Stroke, ino vs. cntrl, LOC499088: 0.59
ILMN_58730, inosine after stroke
  Signal Intensity, LOC499088: 1089
ILMN_58816
  Fold-Induction Stroke, ino vs. cntrl, Dars: 0.76
ILMN_58816, inosine after stroke
  Signal Intensity, Dars: 349
ILMN_58846, LCM-captured CSMNs contralateral a stroke
  Fold-Induction, complement cascade gene Adn ((P) adipsin): 5.81 fold
ILMN_58897
  Fold-Induction Stroke, ino vs. cntrl, Emb: 0.77
ILMN_58897, inosine after stroke
  Signal Intensity, Emb: 425
ILMN_59040
  Fold-Induction Stroke, ino vs. cntrl, Kifap3: 0.64
ILMN_59040, inosine after stroke
  Signal Intensity, Kifap3: 270
ILMN_59161, over and above inosine's effect of decreasing stroke-induced changes
  Fold-induction CSMNs: Npc2: 1.73 fold
ILMN_59359
  Fold-Induction Stroke, ino vs. cntrl, Plcb1: 0.59
ILMN_59359, inosine after stroke
  Signal Intensity, Plcb1: 512
ILMN_59412, over and above inosine's effect of decreasing stroke-induced changes
  Fold-induction CSMNs: Emp3: 2.20 fold
ILMN_59483
  Fold-Induction Stroke, ino vs. cntrl, LOC291762: 0.52
ILMN_59483, inosine after stroke
  Signal Intensity, LOC291762: 673
ILMN_59546
  Fold-Induction Stroke, ino vs. cntrl, LOC315840: 0.85
ILMN_59546, inosine after stroke
  Signal Intensity, LOC315840: 3649
ILMN_59751, LCM-captured CSMNs contralateral a stroke
  Fold-Induction, complement cascade gene C4-2: 2.15 fold
ILMN_59774, over and above inosine's effect of decreasing stroke-induced changes
  Fold-induction CSMNs: Ppp1r14b: 1.74 fold
ILMN_59789
  Fold-Induction Stroke, ino vs. cntrl, Bcas2: 0.91
ILMN_59789, inosine after stroke
  Signal Intensity, Bcas2: 1103
ILMN_59956
  Fold-Induction Stroke, ino vs. cntrl, D123: 0.76
ILMN_59956, inosine after stroke
  Signal Intensity, D123: 607
ILMN_59964
  Fold-Induction Stroke, ino vs. cntrl, LOC497728: 0.56
ILMN_59964, inosine after stroke
  Signal Intensity, LOC497728: 1366
ILMN_60003, over and above inosine's effect of decreasing stroke-induced changes
  Fold-induction CSMNs: Cd68: 2.62 fold
ILMN_60033
  Fold-Induction Stroke, ino vs. cntrl, Tspan2: 0.54
ILMN_60033, inosine after stroke
  Signal Intensity, Tspan2: 1363
ILMN_60037, over and above inosine's effect of decreasing stroke-induced changes
  Fold-induction CSMNs: Lgals3bp: 2.60 fold
ILMN_60046, LCM-captured CSMNs contralateral a stroke
  Fold-Induction, complement cascade gene Serping1: 2.20 fold
ILMN_60046, over and above inosine's effect of decreasing stroke-induced changes
  Fold-induction CSMNs: Serping1: 2.93 fold
ILMN_60123
  Fold-Induction Stroke, ino vs. cntrl, Pgk1: 0.65
ILMN_60123, inosine after stroke
  Signal Intensity, Pgk1: 5869
ILMN_60239
  Fold-Induction Stroke, ino vs. cntrl, Ndufa8: 0.57
ILMN_60239, inosine after stroke
  Signal Intensity, Ndufa8: 572
ILMN_60252
  Fold-Induction Stroke, ino vs. cntrl, Kbtbd9: 0.68
ILMN_60252, inosine after stroke
  Signal Intensity, Kbtbd9: 1263
ILMN_60417
  Fold-Induction Stroke, ino vs. cntrl, LOC309016: 0.68
ILMN_60417, inosine after stroke
  Signal Intensity, LOC309016: 554
ILMN_60448
  Fold-Induction Stroke, ino vs. cntrl, Bckdhb: 0.61
ILMN_60448, inosine after stroke
  Signal Intensity, Bckdhb: 281
ILMN_60511
  Fold-Induction Stroke, ino vs. cntrl, Rbm18: 0.62
ILMN_60511, inosine after stroke
  Signal Intensity, Rbm18: 301
ILMN_60542
  Fold-Induction Stroke, ino vs. cntrl, LOC360618: 0.69
ILMN_60542, inosine after stroke
  Signal Intensity, LOC360618: 1021
ILMN_60584
  Fold-Induction Stroke, ino vs. cntrl, Mg87: 0.80
ILMN_60584, inosine after stroke
  Signal Intensity, Mg87: 1251
ILMN_60653
  Fold-Induction Stroke, ino vs. cntrl, Ndfip1: 0.80
ILMN_60653, inosine after stroke
  Signal Intensity, Ndfip1: 362
ILMN_61063, over and above inosine's effect of decreasing stroke-induced changes
  Fold-induction CSMNs: Rhoc: 2.02 fold
ILMN_61213
  Fold-Induction Stroke, ino vs. cntrl, Pja2: 0.58
ILMN_61213, inosine after stroke
  Signal Intensity, Pja2: 2360
ILMN_61216
  Fold-Induction Stroke, ino vs. cntrl, Khdrbs3: 0.57
ILMN_61216, inosine after stroke
  Signal Intensity, Khdrbs3: 2045
ILMN_61367
  Fold-Induction Stroke, ino vs. cntrl, Dlgap1: 0.68
ILMN_61367, inosine after stroke
  Signal Intensity, Dlgap1: 1249
ILMN_61448, LCM-captured CSMNs contralateral a stroke
  Fold-Induction, complement cascade gene C1qb: 1.84 fold
ILMN_61521
  Fold-Induction Stroke, ino vs. cntrl, LOC500629: 0.59
